Measurements taken from publication PMC9019904, “AD Informer Set: Chemical tools to facilitate Alzheimer's disease drug discovery” (Alzheimer's & Dementia : Translational Research & Clinical …, 2022).

Tests used:
[1] = test system: BV2 (mouse microglia) cell line; assay: pHrodo-myelin phagocytosis/cell viability high content imaging assay: viability (cell count, nuclear area, nuclear intensity); details: BV2 cells, 10 uM compound, 48 hours treatment
In short: (§1)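 10 μM single dose, 48 h total; pHrodo-myelin present final 20 h. Read-out: automated imaging, total cell count/well, mean nuclear intensity/cell. n=2, normalized to untreated wells, % control.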

[2] = test system: HMC3 (human microglia) cell line; assay: as above; details: HMC3 cells, 10 uM compound, 48 hours treatment
In short: as §1

[3] = test system: BV2 (mouse microglia) cell line; assay: pHrodo-myelin phagocytosis/cell viability high content imaging assay: phagocytosis signal; format: cell-based; details: BV2 cells, 10 uM compound, 48 hours treatment, pHrodo-myelin final 20 hours
In short: (§2)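 Phagocytosis and cell viability were measured together by high content imaging about 22 hours after pHrodo-myelin addition. Three measurements were extracted from the images. Intensity increase and decrease were taken as early and later apoptosis, respectively.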

[4] = test system: HMC3 (human microglia) cell line; assay: as above; format: cell-based; details: HMC3 cells, 10 uM compound, 48 hours treatment, pHrodo-myelin final 20 hours
In short: as §2

SMILES | 1. Cell count (% control) [1] [% control] | 2. Nuclear Area (% Control) [1] [% Control] | 3. Nuclear DNA Intensity (% control) [1] [% control] | 1. Cell count (% control) [2] [% control] | 2. Nuclear Area (% Control) [2] [% Control] | 3. Nuclear DNA Intensity (% control) [2] [% control] | 4. Phagocytosis (% control) [3] [% control] | 4. Phagocytosis (% control) [4] [% control]
CS[C@@]1(C(=O)Nc2ccc3[nH]nc(-c4ccc(OC(C)C)nc4)c3c2)CCN(CC(=O)N2CC=C(c3ccc(-c4ncn(C)n4)cc3)CC2)C1 [UNC10302902A] | 54.0 | 110.5 | 112.2 | 113.2 | 96.5 | 97.1 | 339.1 | 45.1
Cc1cc2c(cc1-c1cc(/C=C\C(=O)O)ccc1O)C(C)(C)CCC2(C)C [UNC10302903A] | 102.7 | 107.7 | 96.7 | 106.9 | 99.9 | 95.8 | 143.5 | 96.9
Cc1cc2c(cc1C1(c3ccc(C(=O)O)cn3)CC1)C(C)(C)CCC2(C)C [UNC10302904A] | 72.5 | 111.9 | 92.6 | 110.6 | 108.2 | 90.0 | 105.9 | 73.6
COc1cc(/C=C/c2ccc(NC(=O)/C=C/c3cc(OC)c(OC)c(OC)c3)cc2)cc(OC)c1 [UNC10302905A] | 33.3 | 95.8 | 130.4 | 87.3 | 107.2 | 109.8 | 64.0 | 65.4
Cc1cc(C)nc(NC(=S)N2CCN(c3ccc(C(F)(F)F)cn3)CC2)c1 [UNC10302906A] | 93.3 | 107.2 | 105.6 | 134.6 | 95.0 | 106.3 | 184.1 | 109.8
CCOC(=O)c1sc(NC(=O)c2ccco2)c(SC#N)c1C [UNC10302907A] | 60.9 | 107.8 | 107.1 | 96.1 | 63.3 | 173.6 | 201.8 | 29.4
CCOC(=O)CS(=O)(=O)c1ccc([C@@H](CO)NC(=O)c2cc3c(Cl)c(Cl)c(C)cc3n2C)cc1 [UNC10302908A] | 28.9 | 117.3 | 97.5 | 71.6 | 75.5 | 156.6 | 249.0 | 53.1
CCc1ccc(S(=O)(=O)c2ccccc2)cc1S(=O)(=O)NCCCN(C)C [UNC10302948A] | 115.1 | 106.0 | 108.0 | 127.5 | 97.8 | 101.2 | 187.1 | 143.6
